≈ marks a conversion by molar mass, not a printed value.
How the values were obtained:
[1] = biological target: T1, LIM domain kinase 1 (Homo sapiens, UniProt P53667); test: Inhibition of LIMK1 (unknown origin) assessed as remaining ATP level using cofilin-2 protein as substrate measured after 60 mins incubation with enzyme by KinaseGlo assay
[2] = Partition coefficient, log D of the compound at pH 7.4 by HPLC analysis; type: physicochemical; conditions: octanol/water
[3] = biological target: T1, LIM domain kinase 1; test: Inhibition of LIMK1 (unknown origin) assessed as ADP formation using cofilin-2 protein as substrate measured after 60 mins incubation with enzyme by Transcreener assay
[4] = Solubility of the compound in phosphate buffer at pH 6.5 by nephelometry; type: physicochemical
[5] = Plasma protein binding in human by LC-MS analysis; type: ADME, cell-free; conditions: read-out: PPB (converted)
[6] = biological target: LIM domain kinase 2 (Homo sapiens, UniProt P53671); test: Inhibition of LIMK2 (unknown origin)
[7] = In vitro intrinsic clearance in human liver microsomes at 1 uM by LC-MS analysis; type: ADME; conditions: read-out: CLH
[8] = biological target: T1, LIM domain kinase 1; test: Inhibition of LIMK1-catalyzed cofilin phosphorylation in human ZR-75-1 cells; type: cell-based
[9] = Solubility of the compound in 0.01 M HCl at pH 2 by nephelometry; type: physicochemical
[10] = In vitro intrinsic clearance in mouse liver microsomes at 1 uM by LC-MS analysis; type: ADME; conditions: read-out: CLH

T1 sequence (P53667 whole entry, the tested form may be a part): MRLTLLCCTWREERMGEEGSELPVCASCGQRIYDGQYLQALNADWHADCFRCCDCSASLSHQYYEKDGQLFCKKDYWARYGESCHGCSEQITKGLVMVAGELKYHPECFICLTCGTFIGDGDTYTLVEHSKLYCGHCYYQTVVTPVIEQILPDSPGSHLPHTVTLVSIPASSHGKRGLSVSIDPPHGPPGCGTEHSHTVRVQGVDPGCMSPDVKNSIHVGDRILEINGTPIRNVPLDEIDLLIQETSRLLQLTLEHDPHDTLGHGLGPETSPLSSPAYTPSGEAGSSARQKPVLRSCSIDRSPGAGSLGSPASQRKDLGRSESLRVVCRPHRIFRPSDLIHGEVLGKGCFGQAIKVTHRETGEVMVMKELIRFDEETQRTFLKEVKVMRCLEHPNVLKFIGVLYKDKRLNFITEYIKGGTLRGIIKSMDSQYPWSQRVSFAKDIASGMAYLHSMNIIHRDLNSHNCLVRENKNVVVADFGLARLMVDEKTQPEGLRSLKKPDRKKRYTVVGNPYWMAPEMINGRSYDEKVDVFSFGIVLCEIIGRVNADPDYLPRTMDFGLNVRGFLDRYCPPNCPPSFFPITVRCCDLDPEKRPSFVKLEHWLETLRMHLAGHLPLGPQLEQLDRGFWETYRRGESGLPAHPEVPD
LIM domain kinase 2, sequence (P53671 whole entry, the tested form may be a part): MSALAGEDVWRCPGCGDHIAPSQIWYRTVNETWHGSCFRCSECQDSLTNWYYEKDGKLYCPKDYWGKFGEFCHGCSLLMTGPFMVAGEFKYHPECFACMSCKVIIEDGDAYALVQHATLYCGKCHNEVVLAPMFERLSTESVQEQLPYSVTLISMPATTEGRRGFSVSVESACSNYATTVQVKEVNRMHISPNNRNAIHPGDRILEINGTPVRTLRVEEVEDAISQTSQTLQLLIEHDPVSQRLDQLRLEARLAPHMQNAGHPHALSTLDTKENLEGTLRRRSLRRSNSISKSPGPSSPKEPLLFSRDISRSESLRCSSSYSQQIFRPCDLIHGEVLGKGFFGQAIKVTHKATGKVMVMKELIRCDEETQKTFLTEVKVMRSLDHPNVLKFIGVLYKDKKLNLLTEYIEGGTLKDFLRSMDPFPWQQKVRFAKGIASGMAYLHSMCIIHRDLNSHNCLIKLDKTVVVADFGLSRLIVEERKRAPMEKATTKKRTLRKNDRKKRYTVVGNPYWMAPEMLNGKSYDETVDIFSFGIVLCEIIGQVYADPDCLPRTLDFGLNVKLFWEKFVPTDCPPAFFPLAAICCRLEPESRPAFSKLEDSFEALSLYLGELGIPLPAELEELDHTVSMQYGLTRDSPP

For `Nc1ncnc2c1sc1cc(-c3cccc(C(=O)O)c3)ccc12`, the IC50 [1] was 0.196 µM.
Work on `CS(=O)(=O)c1cccc(-c2ccc3c(c2)sc2c(N)ncnc23)c1` yielded an IC50 [1] of 0.361 µM.
`NC(=O)c1cccc(-c2ccc3c(c2)sc2c(N)ncnc23)c1` showed a logD [2] of 1.9, an IC50 [1] of 0.12 µM and an IC50 [3] of 0.12 µM. For the same compound, the solubility kinetic [4] was 3.1 µg/mL (≈ 9.68 µM), the fraction unbound [5] was 0.037 and the IC50 [6] was 0.273 µM. For the same compound, the microsomal CLint at 1 µM [7] was under 5 µL/min/mg, the IC50 [8] was over 30 µM and the solubility kinetic [9] was 25 µg/mL (≈ 78 µM). It also gave a microsomal CLint at 1 µM [10] of 26 µL/min/mg.
With `Nc1ncnc2c1sc1cc(-c3ccc(NC=O)cc3)ccc12` the IC50 [1] was 0.044 µM.
For `CC(=O)c1ccc(-c2ccc3c(c2)sc2c(N)ncnc23)cc1`, the IC50 [1] was 0.172 µM.
For `Nc1ncnc2c1sc1cc(-c3ccccc3)ccc12`, the logD [2] was 3.65, the solubility kinetic [4] was under 1.6 µg/mL and the microsomal CLint at 1 µM [7] was 114 µL/min/mg. It also gave a solubility kinetic [9] of 6.3 µg/mL (≈ 22.7 µM) and a microsomal CLint at 1 µM [10] of 839 µL/min/mg.
Work on `COc1ccccc1-c1ccc2c(c1)sc1c(N)ncnc12` yielded an IC50 [1] of 0.22 µM.
With `CC(=O)Nc1ccc(-c2ccc3c(c2)sc2c(N)ncnc23)cc1` the IC50 [1] was 0.181 µM.
With `Nc1cccc(-c2ccc3c(c2)sc2c(N)ncnc23)c1` the IC50 [1] was 0.231 µM.
`Nc1ncnc2c1sc1cc(-c3ccccc3Cl)ccc12` showed an IC50 [1] of over 1 µM.
Work on `Cn1c2cc(-c3ccc(NC=O)cc3)ccc2c2ncnc(N)c21` yielded an IC50 [3] of 0.498 µM.
In the case of `CS(=O)(=O)Nc1ccccc1-c1ccc2c(c1)sc1c(N)ncnc12`, the IC50 [1] is reported as 0.998 µM.
For `N#Cc1ccc(-c2ccc3c(c2)sc2c(N)ncnc23)cc1`, the IC50 [1] was 0.828 µM.
`Nc1ncnc2c1sc1cc(-c3cccc(-c4nn[nH]n4)c3)ccc12` gave a logD [2] of 2, an IC50 [1] of 0.05 µM and a solubility kinetic [4] of 6.3 µg/mL (≈ 18.2 µM). It also gave a fraction unbound [5] of 0.012, an IC50 [6] of 0.09 µM and a microsomal CLint at 1 µM [7] of under 5 µL/min/mg. The IC50 [8] was over 30 µM, the solubility kinetic [9] was 6.3 µg/mL (≈ 18.2 µM) and the microsomal CLint at 1 µM [10] was under 6 µL/min/mg.
In the case of `CC(C)C(=O)Nc1ncc(-c2cc(C(F)F)nn2-c2c(Cl)cccc2Cl)s1`, the logD [2] is reported as 3.8 and the fraction unbound [5] is reported as 0.029.
For `Nc1ccc(-c2ccc3c(c2)sc2c(N)ncnc23)cc1`, the IC50 [1] was 0.159 µM.
For `CC(C)CNC(=O)Nc1cccc(-c2ccc3c(c2)sc2c(N)ncnc23)c1`, the IC50 [3] was 0.237 µM.
`CS(=O)(=O)c1ccc(-c2ccc3c(c2)sc2c(N)ncnc23)cc1` showed an IC50 [1] of 0.376 µM.
In the case of `Nc1ncnc2c1sc1cc(-c3ccncc3)ccc12`, the IC50 [1] is reported as 0.732 µM.
`Cn1c2cc(-c3cccc(C(N)=O)c3)ccc2c2ncnc(N)c21` showed an IC50 [3] of 0.379 µM.
Work on `Nc1ncnc2c1sc1cc(-c3cccc(C(=O)NCCO)c3)ccc12` yielded an IC50 [3] of 0.228 µM.
In the case of `Nc1ncnc2c1sc1cc(-c3cccnc3)ccc12`, the IC50 [1] is reported as 0.795 µM.
Compound `NC(=O)Nc1cccc(-c2ccc3c(c2)sc2c(N)ncnc23)c1` has an IC50 [3] of 0.145 µM.
